Measured values: patent publication US10632124B2, “Adrenoceptors antagonists for the prevention and treatment of neurodegenerative conditions” (Cedars-Sinai Medical Center, priority 2013, dated 2020)

Columns and labels:
[1] = system: patients with a diagnosis of iPD; assay: Retrospective cross-sectional medical record analysis of 333 iPD patients: constipation; type: in vivo, human; details: for Constipation, % of patients / No Constipation, % of patients: by dopaminergic treatment
Description: The inventors conducted a retrospective, cross-sectional medical record analysis of 333 consecutive patients with a diagnosis of iPD seen in the Movement Disorders clinic of Cedars-Sinai Medical Center from October 2010 to March 2014. Demographic and clinical data, including vitals, motor and non-motor symptoms, dopaminergic medications, comorbidities and anti-hypertensive medications were collected at the initial consultation visit. All data were collected in an Excel database and analyzed by SPSS version 19.0 (SPSS, Inc., Chicago, Ill.). Continuous variables were expressed as mean±standard deviation and compared by the use of Student t test (normally distributed) or as median±interquartile range value and compared by the use of Mann-Whitney U test (not normally distributed), as appropriate. Normality of data distribution was evaluated using the Kolmogorov-Smirnov test. Categorical variables were expressed as proportion and compared by use of χ^2 test with risk ratios and 95% confidence intervals quoted. To determine the independent predictors of constipation, logistic regression analysis was performed. Variables achieving p<0.1 on univariate analysis were then included in a multivariate analysis. Statistical significance was accepted at p<0.05. […] Constipation was strongly associated with dopaminergic treatment. On the other hand, only 28/63 (44.4%) patients treated with beta-blockers reported constipation (Table 2).

[2] = system: Parkinson's disease patient; assay: Case report of one Parkinson's disease patient; type: in vivo, human
Procedure: Low-dose beta-blocker therapy (carvedilol 6.25 mg BID) was started to treat anxiety avoiding the sedative effect of benzodiazepine.

[3] = system: rectum, mid colon and distal colon; details: wild type rats, cited from earlier work
[4] = in vivo; cited from earlier work
[5] = current (oral) formulations; cited from earlier work
[6] = system: Parkinson's disease; details: in vivo; cited from earlier work

Compound: NC12CC3CC(CC(C3)C1)C2 [Amantadine]
- OR of constipation, univariate logistic regression [1]: 1.528

Compound: N[C@@H](Cc1ccc(O)c(O)c1)C(=O)O [Levodopa, levodopa]
- motor symptoms ([2]; Sinemet 25/100 TID added to pramipexole): almost complete resolution of motor symptoms
- Constipation, % of patients ([1]; Betablockers): 60.0%
- No Constipation, % of patients ([1]; Betablockers): 40.0%
- Constipation, % of patients ([1]; No Betablockers): 71.7%
- No Constipation, % of patients ([1]; No Betablockers): 28.3%
- OR of constipation, multivariate logistic regression ([1]; multivariate incl. age, gender, PD duration, levodopa, dopamine-agonists, beta-blockers): 2.077
- OR of constipation, univariate logistic regression [1]: 2.659

Compound: CN1[C@@H]2CC[C@H]1C[C@@H](OC(=O)C(CO)c1ccccc1)C2 (some centres unmarked) [atropine]
- contractions induced by vagus nerve and pelvic nerve stimulation [3]: abolished

Compound: CC(C)NCC(O)COc1ccc(CCOCC2CC2)cc1 (centres unmarked) [betaxolol]
- passage of the blood-brain barrier [4]: pass the blood-brain barrier

Compound: CC(C)NCC(O)COc1ccc(COCCOC(C)C)cc1 (centres unmarked) [bisopropolol]
- passage of the blood-brain barrier [4]: pass the blood-brain barrier

Compound: Cc1cc2c(OCC(CNC(C)(C)C)OC(=O)c3ccccc3)cccc2[nH]1 (centres unmarked) [bopindolol]
- passage of the blood-brain barrier [4]: pass the blood-brain barrier

Compound: COc1ccccc1OCCNCC(O)COc1cccc2[nH]c3ccccc3c12 (centres unmarked) [carvedilol]
- anxiety, constipation and sleep ([2]; 6.25 mg BID): improved dramatically
- GI symptoms (abdominal bloating and constipation) ([2]; restarted at the same dose after self-discontinuation): virtually immediate resolution
- absorption [5]: rapid and complete
- average elimination half-life [5]: about 8 hours
- passage of the blood-brain barrier [4]: pass the blood-brain barrier

Compound: CCC1(c2c[nH]cn2)Cc2ccc(F)cc2C1 (centres unmarked) [fipemazole]
- levodopa-induced dyskinesias [6]: could also be diminished

Compound: c1ccc2c(c1)OCC(C1=NCCN1)O2 (centres unmarked) [idaxozan]
- levodopa-induced dyskinesias [6]: could also be diminished

Compound: CC(C)(C)NCC(O)COc1cccc2c1CC(O)C(O)C2 (centres unmarked) [nadolol]
- resting, postural, and action tremor in Parkinson's disease [6]: can be diminished

Compound: C=CCOc1ccccc1OCC(O)CNC(C)C (centres unmarked) [oxprenolol]
- passage of the blood-brain barrier [4]: pass the blood-brain barrier

Compound: CCCN[C@H]1CCc2nc(N)sc2C1 [pramipexole]
- tolerability ([2]; doses up to 1.5 mg TID): tolerated well

Compound: CC(C)NCC(O)COc1cccc2ccccc12 (centres unmarked) [propranolol]
- levodopa-induced dyskinesias [6]: could reduce levodopa-induced dyskinesias without worsening Parkinsonism
- relaxations induced by hypogastric nerve stimulation ([3]; rectum, mid colon, distal colon): abolished
- passage of the blood-brain barrier [4]: pass the blood-brain barrier

Compound: CC(C)(C)NC[C@H](O)COc1nsnc1N1CCOCC1 [timolol]
- passage of the blood-brain barrier [4]: pass the blood-brain barrier
